*1 amine or outer side, *2 acyl side, *3 side chain or, on linkers, in order; H or OH if unused. Where no end group is shown, it is not given here. [ ]: non-standard residue; d: D form. Pen(Acm) = L-S-acetamidomethyl-penicillamine, CC(=O)NCSC(C)(C)[C@H](N[*:1])C(=O)[*:2]; Phe(3-Me) = Cc1cccc(C[C@H](N)C(=O)O)c1; 2Pal = N[C@@H](Cc1ccccn1)C(=O)O; dAllylGly = C=CC[C@@H](N)C(=O)O; AllylGly = C=CC[C@H](N)C(=O)O; Phg = N[C@H](C(=O)O)c1ccccc1; Tle = CC(C)(C)[C@H](N)C(=O)O; hSer = N[C@@H](CCO)C(=O)O; Pra = C#CC[C@H](N)C(=O)O; Abu = CC[C@H](N)C(=O)O
Columns and labels:
CaCo2 monolayers [1] = assay: Epithelial flux of Lucifer Yellow through cell monolayer; assay type: cell-based; design: key to Enhanced LY permeability: + indicates an enhancement of the permeability of the tight junctions were observed; − indicates no enhancement of permeability was observed; settings: Lucifer Yellow flux, Caco-2 monolayer
Outline: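 Caco-2 cells (passage 40-60) grown 21-28 days on Transwell filters, equilibrated 30 min at 37 °C in HBSS-HEPES pH 7.4; Lucifer Yellow with test compound applied apically, n=3 filters. Basolateral samples at 60, 120, 180 min read by fluorescence at 485/535 nm against standard curve; TEER also measured.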

CaCo2 monolayers [2] = assay: Trans Epithelial Electric Resistance (TEER) across cell monolayer; assay type: cell-based; design: key to Reduced TEER: + indicates an enhancement of the permeability of the tight junctions were observed; − indicates no enhancement of permeability was observed; settings: Caco-2 monolayer
Outline: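 Caco-2 cells, passage 40-60, grown 21-28 days on Transwell filters, equilibrated 30 min at 37° C in MHBSS pH 7.4. Test compound with Lucifer Yellow applied apically (n=3), incubated at 37° C with 50 RPM shaking; TEER measured at baseline and at 30, 60, 120 and 180 min.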

Substance	Enhanced LY permeability (CaCo2 monolayers [1])	Reduced TEER (CaCo2 monolayers [2])
4 (FCAGRL; not fully specified; printed as Phe-Cys-Ala-Gly-Arg-Leu) [compound 4]	−	−
154 (F[Phg]IGRL-OH; not fully specified; printed as Phe-Phg-Ile-Gly-Arg-Leu-OH; also: peptide conjugate, Xaa: 'may be' L-phenylglycine) [compound 154]	+	+
87 (Ac-FLIGRL-NH2; not fully specified) [compound 87]	+	+
126 (FFIGRL-NH2; also: peptide conjugate) [compound 126]	+	+
39 ([dL][dR]GI[dC]F; not fully specified) [compound 39]	−	−
185 (F[dAllylGly]IGR-NH2; N-terminus assumed; SMILES C=CC[C@@H](NC(=O)[C@@H](N)Cc1ccccc1)C(=O)N[C@H](C(=O)NCC(=O)N[C@@H](CCCNC(=N)N)C(N)=O)[C@@H](C)CC) [compound 185]	−	−
157 (F[Tle]IGRL-OH; not fully specified; also: peptide conjugate, Xaa: 'may be' L-tert-butylglycine) [compound 157]	+	+
164 (FL[dI]GRL-NH2; also: peptide conjugate) [compound 164]	−	−
135 (FVIGRL; also: peptide conjugate) [compound 135]	+	+
145 (H-F[dC]IGRL-OH; also: peptide conjugate) [compound 145]	+	+
184 (F[AllylGly]IGR-NH2; N-terminus assumed; SMILES C=CC[C@H](NC(=O)[C@@H](N)Cc1ccccc1)C(=O)N[C@H](C(=O)NCC(=O)N[C@@H](CCCNC(=N)N)C(N)=O)[C@@H](C)CC) [compound 184]	−	−
161 (F[Pen(Acm)]IGRL; also: peptide conjugate) [compound 161]	+	+
223 (F[AllylGly]IARL-NH2; N-terminus assumed; SMILES C=CC[C@H](NC(=O)[C@@H](N)Cc1ccccc1)C(=O)N[C@H](C(=O)N[C@@H](C)C(=O)N[C@@H](CCCNC(=N)N)C(=O)N[C@@H](CC(C)C)C(N)=O)[C@@H](C)CC) [compound 223]	+	+
134 (FLIGRL; also: peptide conjugate) [compound 134]	−	−
1 (FCIGRL; not fully specified) [compound 1]	+	+
142 (H-F[Abu]IGRL-OH; SMILES CC[C@H](NC(=O)[C@@H](N)Cc1ccccc1)C(=O)N[C@H](C(=O)NCC(=O)N[C@@H](CCCNC(=N)N)C(=O)N[C@@H](CC(C)C)C(=O)O)[C@@H](C)CC) [compound 142]	−	−
174 ([Phe(3-Me)]FIGRL; not fully specified; also: peptide conjugate) [compound 174]	−	−

Substance	Enhanced LY permeability (CaCo2 monolayers [1])	Reduced TEER (CaCo2 monolayers [2])
163 (F[2Pal]IGRL; also: peptide conjugate, Xaa: 'may be' L-beta-(2-pyridyl)-alanine) [compound 163]	−	−
118 (FFLIGRL-NH2; also: peptide conjugate) [compound 118]	+	+
172 (F[hSer][dI]GRL; not fully specified; also: peptide conjugate, Xaa: 'may be' homoserine) [compound 172]	−	−
120 (FPIGRL; also: peptide conjugate) [compound 120]	−	−
21 ([dL]RG[dI][dC][dF]; not fully specified) [compound 21]	−	−
203 (F[AllylGly]PGRL-NH2; N-terminus assumed; SMILES C=CC[C@H](NC(=O)[C@@H](N)Cc1ccccc1)C(=O)N1CCC[C@H]1C(=O)NCC(=O)N[C@@H](CCCNC(=N)N)C(=O)N[C@@H](CC(C)C)C(N)=O) [compound 203]	−	−
186 (M[AllylGly]IGRL-NH2; N-terminus assumed; SMILES C=CC[C@H](NC(=O)[C@@H](N)CCSC)C(=O)N[C@H](C(=O)NCC(=O)N[C@@H](CCCNC(=N)N)C(=O)N[C@@H](CC(C)C)C(N)=O)[C@@H](C)CC) [compound 186]	−	−
34 (F[dC][dI]G[dR][dL]; not fully specified) [compound 34]	−	−
76 (WCIGRL; not fully specified; printed as Trp-Cys-Ile-Gly-Arg-Leu) [compound 76]	+	+
26 (LRG[dI]CF; not fully specified; printed as Leu-Arg-Gly-D-Ile-Cys-Phe) [compound 26]	+	+
175 (F[L‑beta‑cyclopropyl‑alanine]IGRL; also: peptide conjugate) [compound 175]	−	−
210 (F[AllylGly]GGRL-NH2; N-terminus assumed; SMILES C=CC[C@H](NC(=O)[C@@H](N)Cc1ccccc1)C(=O)NCC(=O)NCC(=O)N[C@@H](CCCNC(=N)N)C(=O)N[C@@H](CC(C)C)C(N)=O) [compound 210]	+	+
83 (GFCIGRL; not fully specified; printed as Gly-Phe-Cys-Ile-Gly-Arg-Leu) [compound 83]	+	+
176 (F[Pra]IGR-NH2; N-terminus assumed; SMILES C#CC[C@H](NC(=O)[C@@H](N)Cc1ccccc1)C(=O)N[C@H](C(=O)NCC(=O)N[C@@H](CCCNC(=N)N)C(N)=O)[C@@H](C)CC) [compound 176]	−	−
9 (IGRL; not fully specified; printed as Ile-Gly-Arg-Leu) [compound 9]	−	−
188 (L[AllylGly]IGRL-NH2; N-terminus assumed; SMILES C=CC[C@H](NC(=O)[C@@H](N)CC(C)C)C(=O)N[C@H](C(=O)NCC(=O)N[C@@H](CCCNC(=N)N)C(=O)N[C@@H](CC(C)C)C(N)=O)[C@@H](C)CC) [compound 188]	−	−
193 (Y[AllylGly]IGRL-NH2; N-terminus assumed; SMILES C=CC[C@H](NC(=O)[C@@H](N)Cc1ccc(O)cc1)C(=O)N[C@H](C(=O)NCC(=O)N[C@@H](CCCNC(=N)N)C(=O)N[C@@H](CC(C)C)C(N)=O)[C@@H](C)CC) [compound 193]	−	−
